Data set [1] deals with T1, Mineralocorticoid receptor (Homo sapiens, UniProt P08235).
T1 sequence (P08235 whole entry): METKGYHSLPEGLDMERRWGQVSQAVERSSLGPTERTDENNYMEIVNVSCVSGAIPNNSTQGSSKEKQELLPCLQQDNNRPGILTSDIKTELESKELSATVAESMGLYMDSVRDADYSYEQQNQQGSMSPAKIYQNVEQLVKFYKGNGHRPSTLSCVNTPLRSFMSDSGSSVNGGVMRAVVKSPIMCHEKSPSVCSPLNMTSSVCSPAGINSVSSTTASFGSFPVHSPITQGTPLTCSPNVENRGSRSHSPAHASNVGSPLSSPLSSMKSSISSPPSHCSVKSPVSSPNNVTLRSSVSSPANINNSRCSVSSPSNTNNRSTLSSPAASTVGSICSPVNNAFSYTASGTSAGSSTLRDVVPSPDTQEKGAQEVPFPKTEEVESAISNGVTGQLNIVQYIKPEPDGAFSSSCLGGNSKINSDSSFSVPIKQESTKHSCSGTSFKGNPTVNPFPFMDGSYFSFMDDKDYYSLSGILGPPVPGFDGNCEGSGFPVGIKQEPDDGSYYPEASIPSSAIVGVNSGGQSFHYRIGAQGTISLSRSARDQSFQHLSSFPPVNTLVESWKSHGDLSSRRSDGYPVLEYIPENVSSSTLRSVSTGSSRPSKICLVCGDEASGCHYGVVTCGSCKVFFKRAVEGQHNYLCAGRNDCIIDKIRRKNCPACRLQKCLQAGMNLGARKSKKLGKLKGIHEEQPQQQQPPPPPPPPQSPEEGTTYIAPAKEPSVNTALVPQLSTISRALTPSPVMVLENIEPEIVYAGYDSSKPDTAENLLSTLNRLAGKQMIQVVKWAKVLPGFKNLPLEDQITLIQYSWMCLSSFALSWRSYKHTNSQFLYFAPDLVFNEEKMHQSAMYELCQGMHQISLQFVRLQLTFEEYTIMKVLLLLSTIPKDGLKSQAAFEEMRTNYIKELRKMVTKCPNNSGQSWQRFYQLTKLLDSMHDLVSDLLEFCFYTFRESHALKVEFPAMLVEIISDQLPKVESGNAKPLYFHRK
Kind of data set: Antagonist activity at Gal4-fused human MR LBD (672 to 984 residues) expressed in HEK293T cells assessed as inhibition of aldosterone-induced transactivation activity after 24 hrs by luciferase reporter gene assay. Type of data set: cell-based, HEK-293T.

The target of data set [2] is T1, Mineralocorticoid receptor. In words: Displacement of [3H]-cortisol from MR overexpressed in human 293 cells measured after 2 hrs by Microbeta scintillation counting method. It is filed as cell-based. (In general: Loss of bound radioactivity is the signal in a displacement assay; it reports binding, not function.)
Data set [3] has as its system Rattus norvegicus. Kind of data set: In vivo antagonist activity at MR in rat assessed as inhibition aldosterone-induced decrease in urinary sodium/potassium ratio at 30 mg/kg, po after 20 hrs. Type of data set: functional.
Data set [4] is described as follows: Half life in human hepatocytes. Type of data set: ADME, cell-based, Hepatocyte.
Data set [5] addresses T2, Mineralocorticoid receptor (Homo sapiens) (UniProt P08235).
T2 sequence (whole entry): T1 sequence (P08235 whole entry)
Kind of data set: Antagonist activity at full-length human MR expressed in CHO-K1 cells assessed as inhibition of aldosterone-induced response measured after overnight incubation by luminesence analysis. It is filed as cell-based.

A short description of data set [6]: Half life in human liver microsomes. Type of data set: ADME, microsome. (Microsomes from liver hold many membrane-bound enzymes, among them those of drug oxidation.)
A short description of data set [7]: Clearance in rat. It is filed as ADME. The conditions noted are these: in vivo.
Data set [8] in a line: Half life in rat. It is filed as ADME. The following applies: in vivo.
The target in data set [9] is T1, Mineralocorticoid receptor. In words: Binding affinity to MR (unknown origin).
The target in data set [10] is T1, Mineralocorticoid receptor. In words: Displacement of [3H]-Aldosterone from MR overexpressed in human 293 cells measured after overnight incubation by TopCount method. Type of data set: cell-based.
A further data set deals with T3, Glucocorticoid receptor (Homo sapiens, UniProt P04150).
T3 sequence (P04150 whole entry): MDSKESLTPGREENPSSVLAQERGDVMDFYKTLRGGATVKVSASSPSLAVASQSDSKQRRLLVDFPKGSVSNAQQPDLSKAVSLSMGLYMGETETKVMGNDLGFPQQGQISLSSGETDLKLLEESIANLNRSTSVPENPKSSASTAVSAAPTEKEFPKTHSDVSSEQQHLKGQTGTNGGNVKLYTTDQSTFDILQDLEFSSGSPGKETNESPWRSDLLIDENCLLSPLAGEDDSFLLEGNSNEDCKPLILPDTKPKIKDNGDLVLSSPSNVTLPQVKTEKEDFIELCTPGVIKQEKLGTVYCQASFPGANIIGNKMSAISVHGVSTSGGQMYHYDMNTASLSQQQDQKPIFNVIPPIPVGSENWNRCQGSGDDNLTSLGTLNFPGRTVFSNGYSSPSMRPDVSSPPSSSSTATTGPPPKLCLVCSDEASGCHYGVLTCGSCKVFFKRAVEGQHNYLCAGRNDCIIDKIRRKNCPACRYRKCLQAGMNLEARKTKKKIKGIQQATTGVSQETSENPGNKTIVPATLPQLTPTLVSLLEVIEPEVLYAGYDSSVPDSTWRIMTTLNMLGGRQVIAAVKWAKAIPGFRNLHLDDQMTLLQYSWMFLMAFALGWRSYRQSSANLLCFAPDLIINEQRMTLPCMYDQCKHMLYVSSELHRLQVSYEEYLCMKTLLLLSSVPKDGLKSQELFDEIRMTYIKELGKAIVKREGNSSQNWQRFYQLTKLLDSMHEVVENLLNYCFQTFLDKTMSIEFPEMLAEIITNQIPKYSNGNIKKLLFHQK
In words: Displacement of [3H]-dexamethasone from GR overexpressed in human 293 cells measured after overnight incubation by TopCount method. Type of data set: cell-based.

Data set [11] addresses T1, Mineralocorticoid receptor. Kind of data set: Antagonist activity at Gal4-fused human MR LBD (734 to 985 residues) expressed in CHO-K1 cells after 5 to 6 hrs by luciferase reporter gene assay. Type of data set: cell-based. (A reporter such as luciferase makes a cellular process visible.)
For another data set, the species on record is Homo sapiens. In words: Ratio of IC50 for Gal4-fused human AR expressed in CHO-K1 cells to IC50 for Gal4-fused human MR expressed in CHO-K1 cells. Type of data set: cell-based.
In data set [12] the target is T1, Mineralocorticoid receptor. Kind of data set: Antagonist activity at Gal4-fused MR LBD (unknown origin) expressed in human Huh7 cells assessed as inhibition of aldosterone-induced transcriptional activity after 3 hrs by luciferase reporter gene assay. Type of data set: cell-based.
Data set [13] relates to Rattus norvegicus. In words: In vivo antagonist activity at MR in rat assessed as inhibition aldosterone-induced decrease in urinary sodium/potassium ratio at 3 mg/kg, po after 20 hrs. Type of data set: functional.
Data set [14] deals with T1, Mineralocorticoid receptor. Kind of data set: Displacement of [3H]-Aldosterone from MR overexpressed in human 293 cells measured after 2 hrs by Microbeta scintillation counting method. Type of data set: cell-based.
Data set [15] concerns the target T1, Mineralocorticoid receptor. In words: Antagonist activity at human MR overexpressed in HEK293 cells assessed as inhibition of aldosterone-induced response measured after overnight incubation by luciferase reporter gene assay. Type of data set: cell-based.
The test system of data set [16] is Rattus norvegicus. In words: In vivo antagonist activity at MR in rat assessed as inhibition aldosterone-induced decrease in urinary sodium/potassium ratio at 30 mg/kg, po after 8 hrs. It is filed as functional.

A word on the IC50: it is the concentration that inhibits the measured activity by half. For the molecule `CC(=O)Oc1ccc(CCc2ccc3c(c2)NC(=O)CO3)c(C)c1`, the IC50 in data set [1] was under 2 nM.

By Ki is commonly meant the equilibrium dissociation constant of an inhibitor or competing ligand from its target. The low end stands for tighter binding, the high end for weaker binding. Turning to `O=c1[nH]c2cc(/C=C3\c4ccccc4COc4cc(F)ccc43)ccc2n1[C@@H]1C[C@@H]2COCCN2C1`, the inhibitory constant (Ki) in data set [2] amounted to 9 nM.

As usually defined, the inhibition in vivo is the share of the control response that was lost under treatment. Turning to `CC(=O)S[C@@H]1CC2=CC(=O)CC[C@]2(C)[C@H]2CC[C@@]3(C)[C@@H](CC[C@@]34CCC(=O)O4)[C@H]12` [SPIRONOLACTONE], the inhibition in vivo at 30 mg/kg with Rattus norvegicus [3] is under 20%.

The half-life is how long it takes for the measured level to halve. The low end stands for fast loss, the high end for slow loss. On to `CCC(c1ccc(Br)cc1)(C(C)O)n1ncc2c(NS(C)(=O)=O)cccc21` (stereo not given), for which the values for the half-life in data set [4] and in data set [6] were 1.15 h and 0.8 h, respectively. Moreover, the Inhibitory potency in [5] worked out at 7 nM.

One may read the clearance as the rate of elimination divided by the concentration. A low value points to a low capacity for elimination. For `CCC(O)C(CC)(c1ccc(C(F)(F)F)cc1)n1ncc2c(NS(C)(=O)=O)cccc21` (stereo not given), the half-life was over 1.5 h in data set [4], 1.2 h in data set [6] and 5.3 h in data set [8]. The molecule further gave a clearance in data set [7] of 24 mL/min/kg. Further, the Inhibitory potency in [5] was 4 nM.

What is called Kd is a measure of binding affinity in units of concentration. Read a low Kd as tighter binding. As for `C[C@]12C[C@H](O)[C@H]3[C@@H](CCC4=CC(=O)CC[C@@]43C)[C@@H]1CC[C@@H]2C(=O)CO` [CORTICOSTERONE], the Kd in data set [9] was 0.5 to 2 nM.

On to `Cc1ccc(C(C)(c2c[nH]c3c(NS(C)(=O)=O)cccc23)C2CC2)cc1` (stereo not given), for which the inhibition constant Ki (in data set [10]; at Glucocorticoid receptor) was at most 500 nM each time.

In data set [11], `CCOC(=O)C1=C(C)NC(C)=C(C(C)=O)[C@H]1c1cccc2c(=O)cc(C)oc12` came in with an IC50 of 28 to 43 nM. In addition, the Ratio IC50 in the data set listed under Homo sapiens was determined as 160.

`C[C@@H]1CN(c2ccc3c(c2)NC(=O)CO3)[C@H](c2ccccc2F)CO1`: the half-inhibitory concentration (IC50) in [12] is 33.4 nM.

Regarding `Cc1c(C(=O)Nc2ccc(S(C)(=O)=O)cc2)cn(CCO)c1-c1ccccc1C(F)(F)F` (single isomer, unassigned; atropisomer 2), the inhibition in vivo at 3 mg/kg with Rattus norvegicus [13] came out at 56%.

In turn, `C[C@H](CN1CCOCC1)n1/c(=N\C#N)[nH]c2cc(/C=C3\c4ccccc4COc4cc(F)ccc43)ccc21` yielded an inhibition constant (Ki) in data set [14] of 0.4 nM. Moreover, in data set [15], the IC50 came out at 21 nM.

In the case of `C[C@]12CCC(=O)C=C1CC[C@@H]1[C@@H]2[C@@H](O)C[C@@]2(C)[C@H]1CC[C@]2(O)C(=O)CO` [HYDROCORTISONE], in [9], the Kd fell in the range of 0.5 to 2 nM.

On to `CCC(c1ccc(C(F)(F)F)cc1)(C(O)C(F)F)n1ncc2c(NS(C)(=O)=O)cccc21` (stereo not given), for which the half-life in data set [4] is over 1.5 h; in data set [6], 1.03 h; in data set [8], 9.9 h. The same molecule had a clearance in data set [7] of 3.8 mL/min/kg. Also, the Inhibitory potency in data set [5] turned out to be 11 nM.

On to `CC(c1ccccc1)(c1c[nH]c2c(NS(C)(=O)=O)cccc12)C1CC1` (stereo not given), for which the inhibition constant (Ki) (in data set [10]; at Glucocorticoid receptor) was at most 500 nM in each case.

With `COC(=O)[C@@H]1CC2=CC(=O)CC[C@]2(C)[C@@]23O[C@@H]2C[C@@]2(C)[C@@H](CC[C@@]24CCC(=O)O4)[C@H]13` [EPLERENONE], the inhibition in vivo at 30 mg/kg in the data set on Rattus norvegicus [16] is 8%.

For `C[C@@H]1CN(c2ccc3c(n2)NC(=O)CO3)CCO1`, the half-inhibitory concentration (IC50) in data set [12] was determined as 3050 nM.
